In assay [1] the target is T1, human TLR2 (Homo sapiens, UniProt O60603).
T1 construct: host or cells: HEK-Blue hTLR2 (HEK-293)
Nature of the assay: HEK-Blue hTLR2 antagonism assay (SEAP reporter) with agonist Pam3CSK4 (TLR1/2 agonist). It is filed as cell-based. As to conditions: Table B; HEK-Blue hTLR2 cells, ~3×EC50 Pam3CSK4, 18 h, SEAP OD 655 nm, 8-point dilutions. On the procedure: (§1) Synthetic diacylated lipoprotein (Pam2CSK4, TLR2/6 agonist) and synthetic triacylated lipoprotein (Pam3CSK4, TLR1/2 agonist) were obtained from InvivoGen and were dissolved in endotoxin-free water to a concentration 1 mg/mL, vortexed until complete solubilization, and stored in aliquots at −20° C. Prior to addition to cells, an aliquot of the dissolved ligand was vortexed shortly and then was diluted in medium to 25 ng/mL Pam2CSK4 or 1000 ng/mL Pam3CSK4.
(§2) Test compounds were solubilized fresh to 10-20 mM stocks in DMSO and sonicated for 5-10 minutes in a water bath sonicator. Serial dilutions were prepared in DMSO, and then diluted in medium. The final concentration of DMSO used in the assay was 1%.
(§3) HEK-Blue hTLR2 reporter cells (InvivoGen) are HEK-293 cells stably expressing both the human TLR2 gene and a secreted embryonic alkaline phosphatase (SEAP) reporter construct downstream of NFκB promotor sites. HEK-Blue hTLR2 reporters were cultured according to manufacturer's protocol using Dulbecco's Modified Eagle Medium (DMEM; Gibco) containing 1× GlutaMax (Gibco), 10% heat-inactivated Fetal Bovine Serum (Gibco), Pen-Strep (50 U/mL penicillin, 50 μg/mL streptomycin, Gibco), 100 μg/mL Normocin (InvivoGen), and the selective antibiotic, 1×HEK-Blue Selection (InvivoGen). Quanti-Blue reagent (InvivoGen) for detection and quantification of secreted alkaline phosphatase was dissolved in 100 mL of endotoxin-free water, warmed to 37° C. for 30 minutes and then filtered using a 0.2 μm membrane.
(§4) On day 1, 50 μL of each test compound dilution in duplicates or a vehicle control was added to each well of a 96-well plate followed by addition of 150 μL of HEK-Blue hTLR2 cell suspension (1×10^5 cells/well) and incubated at 37° C./5% CO2 for 2 h. Next, 50 μL of an approximate 3×EC50 concentration of each agonist (Pam2CSK4 or Pam3CSK4) was added to the wells containing test compounds or the vehicle control. The plates were then incubated at 37° C./5% CO2 for 18 h. For each assay run, non-treated HEK-Blue hTLR2 cells were treated with serial dilutions of agonists to determine EC50 values for the respective run.
(§5) On day 2, secreted alkaline phosphatase (SEAP) activity was detected in cell culture supernatants. In brief, 20 μL was collected from each well and transferred to a 96-well plate. Next, 200 μL of Quanti-Blue detection reagent was added to each well. Plates were incubated at room temperature for 15 min. and SEAP activity was assessed by spectrophotometer OD reading at 655 nm. […] IC50 values were calculated based on 8-point dilutions for each compound.

Assay [2] concerns the target T1, human TLR2. The assay can be described thus: HEK-Blue hTLR2 antagonism assay (SEAP reporter) with agonist Pam2CSK4 (TLR2/6 agonist). It is filed as cell-based. As to conditions: Table B; HEK-Blue hTLR2 cells, ~3×EC50 Pam2CSK4, 18 h, SEAP OD 655 nm, 8-point dilutions. As for the experimental part: as §1, §2, §3, §4, §5

From patent US11299487B2, “Compounds and compositions as modulators of TLR signaling” (Neuropore Therapies, Inc., priority 2019, dated 2022) come the findings set out here.

T1 sequence (O60603 21-784): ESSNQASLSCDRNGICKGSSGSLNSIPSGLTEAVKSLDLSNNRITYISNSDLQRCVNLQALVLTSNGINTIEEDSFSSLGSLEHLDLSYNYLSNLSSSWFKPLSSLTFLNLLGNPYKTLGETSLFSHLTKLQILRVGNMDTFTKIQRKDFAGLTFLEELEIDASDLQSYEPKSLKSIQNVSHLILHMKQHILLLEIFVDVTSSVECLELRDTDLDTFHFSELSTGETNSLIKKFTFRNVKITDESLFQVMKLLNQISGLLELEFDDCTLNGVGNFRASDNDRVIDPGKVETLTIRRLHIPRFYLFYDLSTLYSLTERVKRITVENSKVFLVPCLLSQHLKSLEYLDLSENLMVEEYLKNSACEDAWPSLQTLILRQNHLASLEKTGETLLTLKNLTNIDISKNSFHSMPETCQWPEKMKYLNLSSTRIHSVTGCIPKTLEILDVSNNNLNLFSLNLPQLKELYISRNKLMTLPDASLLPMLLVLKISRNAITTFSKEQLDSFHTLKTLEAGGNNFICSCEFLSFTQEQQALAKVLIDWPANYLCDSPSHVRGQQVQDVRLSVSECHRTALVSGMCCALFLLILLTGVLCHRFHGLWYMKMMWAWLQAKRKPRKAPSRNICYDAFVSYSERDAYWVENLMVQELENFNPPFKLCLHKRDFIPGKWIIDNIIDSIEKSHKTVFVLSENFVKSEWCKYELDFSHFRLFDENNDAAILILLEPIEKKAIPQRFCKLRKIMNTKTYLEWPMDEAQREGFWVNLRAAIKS

For orientation: IC50 means the concentration at which inhibition is half-maximal. For the compound `COc1cc(C#Cc2ccc(N3CCOCC3)cc2)cc(C=O)c1O` [Compound B8, 2-hydroxy-3-methoxy-5-((4-morpholinophenyl)ethynyl)benzaldehyde], the results for the IC50 at human TLR2 [1] and on human TLR2 [2] were 1.6 µM and 2.9 µM, respectively.
With `O=Cc1cc(NC(=O)c2ccccc2)cc(F)c1O` [Compound B9, N-(3-fluoro-5-formyl-4-hydroxyphenyl)benzamide], the IC50 worked out at 6.8 µM on human TLR2 [1] and 8.1 µM at human TLR2 [2].
Regarding `O=Cc1cc(NC(=O)Nc2ccccc2)cc(F)c1O` [Compound B10, 1-(3-fluoro-5-formyl-4-hydroxyphenyl)-3-phenylurea], the figures for the concentration for half-maximal inhibition (IC50) at human TLR2 [1] and at human TLR2 [2] were 7.2 µM and 11.6 µM, respectively.
On to `O=Cc1cc(C(=O)Nc2ccc(C(F)(F)F)cc2)cc(F)c1O` [Compound B13, 3-fluoro-5-formyl-4-hydroxy-N-(4-(trifluoromethyl)phenyl)benzamide], for which the concentration for half-maximal inhibition (IC50) on human TLR2 [1] and on human TLR2 [2] was 1.9 µM throughout.
On to `O=Cc1cc(C(=O)Nc2cnc(N3CCCC3)nc2)cc(F)c1O` [Compound B59, 3-fluoro-5-formyl-4-hydroxy-N-(2-(pyrrolidin-1-yl)pyrimidin-5-yl)benzamide], for which the IC50 at human TLR2 [1] is 19.8 µM; on human TLR2 [2], 32.7 µM.
As for `O=Cc1cc(C(=O)Nc2ccc(N3CCCC3)nc2)cc(F)c1O` [Compound B61, 3-fluoro-5-formyl-4-hydroxy-N-(6-(pyrrolidin-1-yl)pyridin-3-yl)benzamide], the results for the IC50 on human TLR2 [1] and at human TLR2 [2] were 9.3 µM and 16.4 µM, respectively.
For `Cn1cc(-c2ccc(NC(=O)c3cc(F)c(O)c(C=O)c3)cc2)cn1` [Compound B63, 3-fluoro-5-formyl-4-hydroxy-N-(4-(1-methyl-1H-pyrazol-4-yl)phenyl)benzamide], in that order: 11.3 µM and 30.1 µM.
Regarding `O=Cc1cc(NC(=O)Nc2ccc(F)cc2)cc(F)c1O` [Compound B64, 1-(3-fluoro-5-formyl-4-hydroxyphenyl)-3-(4-fluorophenyl)urea], the IC50 on human TLR2 [1] was found to be 8 µM; on human TLR2 [2] it was 10.9 µM.
Take `O=Cc1cc(C(=O)Nc2ccc(N3CCCCC3)cc2)cc(F)c1O` [Compound B66, 3-fluoro-5-formyl-4-hydroxy-N-(4-(piperidin-1-yl)phenyl)benzamide]: the values for the 50% inhibitory concentration (IC50) on human TLR2 [1] and on human TLR2 [2] were 1 µM and 1.8 µM, respectively.
For `O=Cc1cc(C(=O)Nc2ccc(N3CCN(C4CC4)CC3)cc2)cc(F)c1O` [Compound B69, N-(4-(4-cyclopropylpiperazin-1-yl)phenyl)-3-fluoro-5-formyl-4-hydroxybenzamide], in that order: 2.3 µM and 7.6 µM.
Take `O=Cc1cc(C(=O)Nc2ccc(N3CCCN(C4CC4)CC3)cc2)cc(F)c1O` [Compound B70, N-(4-(4-cyclopropyl-1,4-diazepan-1-yl)phenyl)-3-fluoro-5-formyl-4-hydroxybenzamide]: the half-maximal inhibitory concentration (IC50) turned out to be 6.5 µM at human TLR2 [1] and 11.5 µM on human TLR2 [2].
For `O=Cc1cc(C(=O)Nc2cccc(N3CCCCC3)c2)cc(F)c1O` [Compound B72, 3-fluoro-5-formyl-4-hydroxy-N-(3-(piperidin-1-yl)phenyl)benzamide], in that order: 2.4 µM and 4.6 µM.
Regarding `O=Cc1cc(C(=O)Nc2ccc(N3CC4(CC4)CC3=O)cc2)cc(F)c1O` [Compound B78, 3-fluoro-5-formyl-4-hydroxy-N-(4-(6-oxo-5-azaspiro[2.4]heptan-5-yl)phenyl)benzamide], the IC50 came to 18.5 µM at human TLR2 [1] and 34.4 µM at human TLR2 [2].
With `O=Cc1cc(C(=O)Nc2ccc(N3CCC4(CC4)C3)cc2)cc(F)c1O` [Compound B79, N-(4-(5-azaspiro[2.4]heptan-5-yl)phenyl)-3-fluoro-5-formyl-4-hydroxybenzamide], the half-inhibitory concentration (IC50) on human TLR2 [1] came to 1.4 µM; at human TLR2 [2], 4.1 µM.
Turning to `O=Cc1cc(C#Cc2ccc(C(=O)NC3CC3)cc2)cc(F)c1O` [Compound B80, N-cyclopropyl-4-((3-fluoro-5-formyl-4-hydroxyphenyl)ethynyl)benzamide], the IC50 is 35.9 µM on human TLR2 [1] and 15.5 µM on human TLR2 [2].
For `O=Cc1cc(C(=O)Nc2ccc(N3Cc4ccccc4C3)cc2)cc(F)c1O` [Compound B81, 3-fluoro-5-formyl-4-hydroxy-N-(4-(isoindolin-2-yl)phenyl)benzamide] the same measures were 0.5 µM and 1 µM.
Take `O=Cc1cc(C(=O)Nc2ccc(N3CCc4ccccc4C3)cc2)cc(F)c1O` [Compound B82, N-(4-(3,4-dihydroisoquinolin-2(1H)-yl)phenyl)-3-fluoro-5-formyl-4-hydroxybenzamide]: the IC50 at human TLR2 [1] was found to be 0.7 µM; at human TLR2 [2], 1.2 µM.
For `O=Cc1cc(C(=O)Nc2ccc(N3CCN(c4ccccc4)CC3)cc2)cc(F)c1O` [Compound B83, 3-fluoro-5-formyl-4-hydroxy-N-(4-(4-phenylpiperazin-1-yl)phenyl)benzamide], the IC50 at human TLR2 [1] is 0.3 µM; on human TLR2 [2] it was 1 µM.
For `O=Cc1cc(C(=O)Nc2ccc(N3CCC(N4CCCC4)CC3)cc2)cc(F)c1O` [Compound B84, 3-fluoro-5-formyl-4-hydroxy-N-(4-(4-(pyrrolidin-1-yl)piperidin-1-yl)phenyl)benzamide] the same measures were 14.3 µM and 33.9 µM.
As to `O=Cc1cc(C(=O)Nc2ccc(N3Cc4ccccc4C3)nc2)cc(F)c1O` [Compound B86, 3-fluoro-5-formyl-4-hydroxy-N-(6-(isoindolin-2-yl)pyridin-3-yl)benzamide], the IC50 on human TLR2 [1] stood at 1.8 µM; at human TLR2 [2], 4.3 µM.
For the compound `O=Cc1cc(C(=O)Nc2ccc(N3CCOc4ccccc43)cc2)cc(F)c1O` [Compound B90, N-(4-(2,3-dihydro-4H-benzo[b][1,4]oxazin-4-yl)phenyl)-3-fluoro-5-formyl-4-hydroxybenzamide], the IC50 on human TLR2 [1] came out at 1.9 µM; on human TLR2 [2], 2.9 µM.
For `O=Cc1cc(C(=O)Nc2ccc(N3CCCC3)c(C(F)(F)F)c2)cc(F)c1O` [Compound B91, 3-fluoro-5-formyl-4-hydroxy-N-(4-(pyrrolidin-1-yl)-3-(trifluoromethyl)phenyl) benzamide], the figures for the IC50 at human TLR2 [1] and at human TLR2 [2] were 1.6 µM and 2.2 µM, respectively.
`CN(CC(C)(C)C)c1ccc(NC(=O)c2cc(F)c(O)c(C=O)c2)cc1` [Compound B94, 3-fluoro-5-formyl-4-hydroxy-N-(4-(methyl(neopentyl)amino)phenyl)benzamide]: the concentration for half-maximal inhibition (IC50) on human TLR2 [1] was found to be 0.9 µM; on human TLR2 [2], 1 µM.
As for `O=Cc1cc(C(=O)Nc2ccc(N3C4CCC3CC4)cc2)cc(F)c1O` [Compound B95, N-(4-(7-azabicyclo[2.2.1]heptan-7-yl)phenyl)-3-fluoro-5-formyl-4-hydroxybenzamide], the half-maximal inhibitory concentration (IC50) worked out at 2.8 µM at human TLR2 [1] and 3.7 µM on human TLR2 [2].
For `O=Cc1cc(C(=O)Nc2ccc(N3C4CCCC3CC4)cc2)cc(F)c1O` [Compound B96, N-(4-(8-azabicyclo[3.2.1]octan-8-yl)phenyl)-3-fluoro-5-formyl-4-hydroxybenzamide], in that order: 1.1 µM and 1.4 µM.
In the case of `CC1(C)CN(c2ccc(NC(=O)c3cc(F)c(O)c(C=O)c3)cn2)c2ccc(F)cc21` [Compound B99, 3-fluoro-N-(6-(5-fluoro-3,3-dimethylindolin-1-yl)pyridin-3-yl)-5-formyl-4-hydroxybenzamide], the concentration for half-maximal inhibition (IC50) was found to be 0.5 µM at human TLR2 [1] and 0.6 µM on human TLR2 [2].
For `O=Cc1cc(C(=O)Nc2ccc(N3CCN(c4ccccc4)CC3)nc2)cc(F)c1O` [Compound B102, 3-fluoro-5-formyl-4-hydroxy-N-(6-(4-phenylpiperazin-1-yl)pyridin-3-yl)benzamide], the results for the concentration for half-maximal inhibition (IC50) on human TLR2 [1] and on human TLR2 [2] were 1 µM and 2 µM, respectively.
For `O=Cc1cc(C(=O)Nc2ccc(N3C[C@H]4CCC[C@H]4C3)nc2)cc(F)c1O` [Compound B103, 3-fluoro-5-formyl-N-(6-((3aR,6aS)-hexahydrocyclopenta[c]pyrrol-2(1H)-yl)pyridin-3-yl)-4-hydroxybenzamide], the half-maximal inhibitory concentration (IC50) on human TLR2 [1] stood at 1 µM; at human TLR2 [2] it was 1.7 µM.
